Assay results from patent US20240124424A1, “SOLID FORMS OF (5S)-CYCLOPROPYL-5-[3-[(3S)-4-(3,5-DIFLUOROPHENYL)-3-METHYL-PIPERAZIN-1-YL]-3-OXO-PROPYL]IMIDAZOLIDINE-2,4-DIONE” (Galapagos NV, priority 2020, published 2024).
Values joined by “and” are separate entries in the source; they are usually repeats but may differ in a detail not shown here. Identical values can stand only once.

Key:
[1] = Stability study of the solid forms; format: physicochemical; details: for Stability of solid forms under different conditions: result in words
mdx mice = assay: Duchenne muscular dystrophy mdx model; format: in vivo; design: Average force output (grip strength) / Tissue volume / Bone volume: unit not given here; details: mean, Cpd 1 120 mg/kg p.o. b.i.d., prednisolone 5 mg/kg p.o. qd; for Av. g/g BW (average force output/g of body weight) / Average force output (grip strength): n = 15
Description: The male mdx mice is the most used animal model for pre-clinical Duchenne muscular dystrophy (DMD) research.
Five-week-old mdx mice (Animal Resource Centre; Perth, WA, Australia) were allowed to acclimatise for 1 week to their surroundings, before being randomly allocated to one of four treatment groups or an untreated control group (15 animals per group) as described in the table below. At the start of the study, these groups were matched for mouse body weight.
The untreated control mdx mice were restrained throughout the study. Following 1-week acclimatisation, this group of mice also have baseline measurements of grip strength and body composition taken, which were repeated at ˜10 weeks and ˜15 weeks of age. Furthermore, these mice were weighed on a regular basis and their urine was collected at ˜6, ˜10 and ˜15 weeks of age. […]
Bone structure was evaluated via μCT analysis of cortical and trabecular bone on the femur.

BALB/c (H2^d) mice = assay: Graft versus host (cGvHD) lung model; format: in vivo; details: 120 mg/kg p.o. b.i.d., statistically significant
Description: In this cGvHD model, fibrosis was induced in BALB/c (H2^d) mice by allogeneic transplantation of bone marrow cells and splenocytes from B10.D2 (H2^d) donor mice (minor HLA mismatch). The recipient mice develop inflammation-driven dermal and pulmonary fibrosis resembling patients with rapidly progressive diffuse cutaneous systemic sclerosis (Zen et al., 2012).
The treatment was provided only after the onset of first clinical symptoms of sclerodermatous cGvHD.
The following groups with each eight mice were used in this study • Syngeneically transplanted, placebo-treated control group: Syngeneic bone marrow and splenocyte transplantation (BALB/c (H2^d)→BALB/c (H2^d)). Application of methyl cellulose 0.5% from day 21 to day 56 post transplantation. • Vehicle-treated fibrosis group: Allogeneic bone marrow and splenocyte transplantation (B10.D2 (H2^d)→BALB/c (H2^d)). Application of methyl cellulose 0.5% from day 21 to day 56 post transplantation • Control group to assess pretreatment levels of fibrosis induced by allogeneic transplantation: Allogeneic bone marrow and splenocyte transplantation (B10.D2 (H2^d)→BALB/c (H2^d)). Sacrifice at day 21, before treatment was initiated in the other groups. • Treatment group: Allogeneic bone marrow and splenocyte transplantation (B10.D2 (H2^d)→BALB/c (H2^d)). Application of a test compound of the invention from day 21 to day 56 post transplantation. • Positive control group: Allogeneic bone marrow and splenocyte transplantation (B10.D2 (H2^d)→BALB/c (H2^d)). Application of 50 mg/kg qd nintedanib from day 21 to day 56 post transplantation.
Animals were sacrificed 2 h post last dose, and samples of skin (3 mm punch biopsies), lung, spleen and blood were collected for histology and gene expression analysis.
The anti-fibrotic effects on skin were analysed by determination of dermal thickness, quantification of lesional collagen and staining for myofibroblasts.
In case of positive effects on skin fibrosis, effects on pulmonary fibrosis were analysed by Ashcroft scoring, hydroxyproline content, and quantification of the collagen covered area using Sirius red staining
Based on individual animal raw data, the means for each group were determined and percent change from disease controls was calculated. Treatment groups were compared to disease controls using a one-way analysis of variance (1-way ANOVA) with a Dunnett's post-hoc analysis for measured (parametric) data or a Kruskal-Wallis test with a Dunn's post-hoc analysis for scored (non-parametric) data.

Balb/c mice = assay: Protein overload nephrectomy model; format: in vivo; details: day 14, individual mice, Cpd 1 240 mg/kg/day b.i.d. or lisinopril 10 mg/kg/day, oral gavage; for proteinuria / urine creatinine: 24 h urine; for Protein/creatinine: urine ratio
Method: This animal model allows to assess the efficacy of the compound of the invention in renal disease, including renal fibrosis.
This study was undertaken in Balb/c mice (Charles River).
Mice underwent a left unilateral nephrectomy via a short flank incision under anaesthesia.
Sham control mice received an incision only . The mice were allowed to recover from surgery for 7 days.
Drug treatment commenced one day prior to initiation of protein overload.
Each mouse received either Cpd 1 240 mg/kg/day b.i.d. (dosed daily at 8h00 and 15h30), or 10 mg/kg/day Lisinopril (one dose Lisinopril plus one dose of vehicle), or vehicle alone (0.5% methyl cellulose containing 2% Tween 80—two doses) by oral gavage.
Sham mice received vehicle alone. Protein overload was initiated by daily intraperitoneal injections of sterile filtered 450 mg/ml BSA solution in saline (Sigma cat A4919: low endotoxin) starting from 2 mg/g body weight on day one and increasing to 15 mg/g on day 7 until day 14 according to schedule below:
Sham mice received equivalent volumes of saline. After the last injection, mice were housed in metabolic cages for 24 h urine collection.
The mice were then anaesthetized before sacrifice. Blood sample was collected. The remaining right kidneys were perfused with PBS (Sigma 806552)+10 mM EDTA (Invitrogen 15575-02—stock 0.5M) after which they were excised and transverse dissected.
All data were expressed as means±SEM. Results were analysed using GraphPad Prism 8. D'Agostino-Pearson omnibus normality tests were performed to assess normality for data sets >8, while a Shapiro-Wilk test was applied to data sets <8. For multiple comparisons, a one-way ANOVA with Tukey's post hoc correction (parametric) or a Kruskal-Wallis test with Dunn's post hoc test (non-parametric data) were used. ELISA standard curves were plotted using a Sigmoidal4PL fit where x was the log of the standard concentration. Relative mRNA expression levels were calculated according to the Livak equation as 2-ΔCt. A confidence interval of 0.95, p≤0.05, was applied for all statistical tests.
The following endpoints were measured: • Urine Protein concentration mg/mL, • Urine protein/mg creatinine (mg/mg) • serum protein concentration (mg/mL), • urine creatinine concentration (mg/dL)(mg/mL) • Serum creatinine concentration (mg/dL) • Serum urea concentration (mg/dL) • Versikine, NITEGE, ARGS dot blots • Immunohistochemistry: ADAMTS5, Collagen I, Collagen IV, fibronectin, CD45, complement C3, F4/80

[2] = PK study in human, tablets of Form I and Form II; format: in vivo; details: fasted, 300 mg oral
Method: Following a single 300 mg oral administration of Cpd 1 under fasted and/or fed conditions to healthy male subjects (18 subjects per group) as 30% or 50% drug load tablets of crystalline form I and crystalline form II, concentrations of Cpd 1 human plasma concentrations were determined using protein precipitation extraction with liquid chromatography with tandem mass spectrometry (LC-MS/MS) detection.
The lower limit of quantification was 1 ng/mL. In each analytical run, duplicate QC samples were analyzed along with the study samples.
Blood samples (2 mL) for determination of Cpd 1 in plasma were collected at various time points into tubes containing lithium heparin and were immediately chilled (ice bath). Within 30 min after blood collection, the plasma was separated in a refrigerated centrifuge at 4° C. for 10 min at circa 1,500 g.
Predose PK samples were collected within 15 min predose then at the following time points: 0.5 h, 1 h, 1.5 h, 2 h, 2.5 h, 3 h, 4 h, 5 h, 6 h, 8 h, 12 h, 16 h, 24 h, 48 h, 72 h. For all PK samples between 0.5 and 16 h, a window of ±5 min was allowed; for 24- to 72-h samples, a window of ±30 min was allowed.
All statistical analyses were performed using SAS® version 9.4 (or higher) (SAS Institute, Cary, NC, USA) and/or Phoenix WinNonLin (version 8 or higher) software.
All relevant data were documented using summary tables, figures, and subject data listings. […]

[3] = storage 25° C./60% RH - 12 months
[4] = storage 40° C./75% RH - 6 months

Stability of solid forms under different conditions [1] | Stability [1, 3] | Stability [1, 4] | Compound | BV/TV (bone volume fraction) (mdx mice; after treatment) | Bone volume (mdx mice; after treatment) | Av. g/g BW (average force output/g of body weight) (mdx mice; mid treatment (4 weeks)) | Average force output (grip strength) (mdx mice; mid treatment (4 weeks)) | Av. g/g BW (average force output/g of body weight) (mdx mice; post treatment (9 weeks)) | Average force output (grip strength) (mdx mice; post treatment (9 weeks)) | Av. g/g BW (average force output/g of body weight) (mdx mice; pre-treatment) | Average force output (grip strength) (mdx mice; pre-treatment) | proteinuria (Balb/c mice) | urine creatinine (Balb/c mice) | serum creatinine (Balb/c mice) | Protein/creatinine (Balb/c mice) | further results
stable | 100% | 100% | C[C@H]1CN(C(=O)CC[C@@]2(C3CC3)NC(=O)NC2=O)CCN1c1cc(F)cc(F)c1 [Form I, (5S)-cyclopropyl-5-[3-[(3S)-4-(3,5-difluorophenyl)-3-methyl-piperazin-1-yl]-3-oxo-propyl]imidazolidine-2,4-dione] | – | – | – | – | – | – | – | – | – | – | – | – | –
stable | 99.3% | 98.7% | C[C@H]1CN(C(=O)CC[C@@]2(C3CC3)NC(=O)NC2=O)CCN1c1cc(F)cc(F)c1 [Form II, (5S)-cyclopropyl-5-[3-[(3S)-4-(3,5-difluorophenyl)-3-methyl-piperazin-1-yl]-3-oxo-propyl]imidazolidine-2,4-dione] | – | – | – | – | – | – | – | – | – | – | – | – | increase in plasma peak exposure (Cmax) compared to polymorphic form I ([2]; 30% load tablet): 34%; increase in plasma peak exposure (Cmax) compared to polymorphic form I ([2]; 50% load tablet): 40%

Second part, the compound before the results:

Compound | Stability of solid forms under different conditions [1] | Stability [1, 3] | Stability [1, 4] | BV/TV (bone volume fraction) (mdx mice; after treatment) | Bone volume (mdx mice; after treatment) | Av. g/g BW (average force output/g of body weight) (mdx mice; mid treatment (4 weeks)) | Average force output (grip strength) (mdx mice; mid treatment (4 weeks)) | Av. g/g BW (average force output/g of body weight) (mdx mice; post treatment (9 weeks)) | Average force output (grip strength) (mdx mice; post treatment (9 weeks)) | Av. g/g BW (average force output/g of body weight) (mdx mice; pre-treatment) | Average force output (grip strength) (mdx mice; pre-treatment) | proteinuria (Balb/c mice) | urine creatinine (Balb/c mice) | serum creatinine (Balb/c mice) | Protein/creatinine (Balb/c mice) | further results
C[C@H]1CN(C(=O)CC[C@@]2(C3CC3)NC(=O)NC2=O)CCN1c1cc(F)cc(F)c1 [Amorphous, (5S)-cyclopropyl-5-[3-[(3S)-4-(3,5-difluorophenyl)-3-methyl-piperazin-1-yl]-3-oxo-propyl]imidazolidine-2,4-dione] | stable | 100% | 99.3% | – | – | – | – | – | – | – | – | – | – | – | – | –
C[C@H]1CN(C(=O)CC[C@@]2(C3CC3)NC(=O)NC2=O)CCN1c1cc(F)cc(F)c1 [Cpd 1, (5S)-cyclopropyl-5-[3-[(3S)-4-(3,5-difluorophenyl)-3-methyl-piperazin-1-yl]-3-oxo-propyl]imidazolidine-2,4-dione] | – | – | – | 36.09% | 0.80 | 3.72 g/g | 91.88 | 3.86 g/g | 88.24 | 2.86 g/g | 61.13 | 75.2 mg/mL and 54.7 mg/mL and 187 mg/mL and 79.4 mg/mL and 145 mg/mL and 72.4 mg/mL and 143.5 mg/mL and 229.6 mg/mL and 163 mg/mL and 44.4 mg/mL | 0.33 mg/mL and 0.34 mg/mL and 0.38 mg/mL and 0.25 mg/mL (2×) and 0.29 mg/mL and 0.26 mg/mL and 0.297 mg/mL and 0.384 mg/mL and 0.28 mg/mL | 0.43 mg/dL and 0.4 mg/dL and 0.47 mg/dL and 0.44 mg/dL and 0.41 mg/dL and 0.46 mg/dL and 0.39 mg/dL and 0.38 mg/dL and 0.3 mg/dL and 0.37 mg/dL | 229 and 160 and 497 and 321 and 581 and 250 and 550 and 774 and 425 and 159 | Tissue volume (mdx mice; after treatment): 2.21; reduction of Hydroxyproline content in skin (BALB/c (H2^d) mice): −8.3%; decrease of Ashcroft score compared to the vehicle group (BALB/c (H2^d) mice; lung): −1,3 fold; decrease of collagen-covered lung area compared to the vehicle group (BALB/c (H2^d) mice; lung): −1,2 fold; reduction of myofibroblast count (BALB/c (H2^d) mice; skin): −35%
NCCCC[C@H](N[C@@H](CCc1ccccc1)C(=O)O)C(=O)N1CCC[C@H]1C(=O)O [lisinopril, reference compound] | – | – | – | – | – | – | – | – | – | – | – | 59.1 mg/mL and 128.8 mg/mL and 55.8 mg/mL and 197.6 mg/mL and 71.7 mg/mL and 264.6 mg/mL and 284 mg/mL and 82.1 mg/mL and 80 mg/mL and 79 mg/mL | 0.467 mg/mL and 0.378 mg/mL and 0.32 mg/mL and 0.36 mg/mL and 0.3 mg/mL and 0.34 mg/mL and 0.41 mg/mL and 0.38 mg/mL and 0.22 mg/mL and 0.42 mg/mL | 0.39 mg/dL and 0.41 mg/dL and 0.34 mg/dL and 0.35 mg/dL and 0.25 mg/dL and 0.57 mg/dL (2×) and 0.46 mg/dL and 0.55 mg/dL and 0.54 mg/dL | 127 and 341 and 174 and 552 and 238 and 774 and 700 and 216 and 364 and 188 | –
C[C@]12C=CC(=O)C=C1CC[C@@H]1[C@@H]2[C@@H](O)C[C@@]2(C)[C@H]1CC[C@]2(O)C(=O)CO [prednisolone, reference compound] | – | – | – | 29.84% | 0.70 | 3.44 g/g | 84.86 | 2.93 g/g | 78.84 | 2.83 g/g | 60.55 | – | – | – | – | –
